Experimental data published in US20100144758A1, “AZAINDOLE P2X3 AND P2X2/3 MODULATORS” (priority 2008, published 2010).

Columns and labels:
rat P2X3 receptor = target: T1, rat P2X3 receptor (Rattus norvegicus, UniProt P49654); experiment: P2X3 FLIPR (Fluorometric Imaging Plate Reader) assay; type: cell-based; settings: CHO-K1 cells transfected with rat P2X3; agonist α,β-meATP 1 μM; Fluo-3 calcium fluorescence
T1 construct: expressed in transfected cells; host or cells: CHO-K1
T1 sequence (P49654 1-397): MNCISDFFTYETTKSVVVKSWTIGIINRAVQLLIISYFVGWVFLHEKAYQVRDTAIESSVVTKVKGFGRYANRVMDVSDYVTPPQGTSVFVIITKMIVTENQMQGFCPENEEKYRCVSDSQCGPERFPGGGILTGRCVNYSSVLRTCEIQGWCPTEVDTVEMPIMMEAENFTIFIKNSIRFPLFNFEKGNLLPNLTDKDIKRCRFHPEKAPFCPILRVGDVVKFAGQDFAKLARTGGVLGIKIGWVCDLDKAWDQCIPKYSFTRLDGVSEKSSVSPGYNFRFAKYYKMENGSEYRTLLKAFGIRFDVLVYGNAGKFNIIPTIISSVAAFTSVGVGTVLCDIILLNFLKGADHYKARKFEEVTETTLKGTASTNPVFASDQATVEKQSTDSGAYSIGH
Experimental: (§1) CHO-K1 cells were transfected with cloned rat P2X3 or human P2X2/3 receptor subunits and passaged in flasks. 18-24 hours before the FLIPR experiment, cells were released from their flasks, centrifuged, and resuspended in nutrient medium at 2.5×10^5 cells/ml. The cells were aliquoted into black-walled 96-well plates at a density of 50,000 cells/well and incubated overnight in 5% CO2 at 37° C. On the day of the experiment, cells were washed in FLIPR buffer (calcium- and magnesium-free Hank's balanced salt solution, 10 mM HEPES, 2 mM CaCl2, 2.5 mM probenecid; FB). Each well received 100 μl FB and 100 μl of the fluorescent dye Fluo-3 AM [2 μM final conc.]. […]
(§2) Test compounds (dissolved in DMSO at 10 mM and serially diluted with FB) or vehicle were added to each well (25 μl of a 4× solution) and allowed to equilibrate for 20 minutes at room temperature. The plates were then placed in the FLIPR and a baseline fluorescence measurement (excitation at 488 nm and emission at 510-570 nm) was obtained for 10 seconds before a 100 μl/well agonist or vehicle addition. […] Fluorescence was measured for an additional 2 minutes at 1 second intervals after agonist addition. A final addition of ionomycin (5 μM, final concentration) was made to each well of the FLIPR test plate to establish cell viability and maximum fluorescence of dye-bound cytosolic calcium. […]

human P2X2/3 receptor = target: T2, human P2X2/3 receptor (Homo sapiens, UniProt P56373+Q9UBL9); experiment: P2X2/3 FLIPR (Fluorometric Imaging Plate Reader) assay; type: cell-based; settings: CHO-K1 cells transfected with human P2X2/3; agonist α,β-meATP 5 μM; Fluo-3 calcium fluorescence
T2 construct: expressed in transfected cells; host or cells: CHO-K1
T2 sequence (Q9UBL9 1-471): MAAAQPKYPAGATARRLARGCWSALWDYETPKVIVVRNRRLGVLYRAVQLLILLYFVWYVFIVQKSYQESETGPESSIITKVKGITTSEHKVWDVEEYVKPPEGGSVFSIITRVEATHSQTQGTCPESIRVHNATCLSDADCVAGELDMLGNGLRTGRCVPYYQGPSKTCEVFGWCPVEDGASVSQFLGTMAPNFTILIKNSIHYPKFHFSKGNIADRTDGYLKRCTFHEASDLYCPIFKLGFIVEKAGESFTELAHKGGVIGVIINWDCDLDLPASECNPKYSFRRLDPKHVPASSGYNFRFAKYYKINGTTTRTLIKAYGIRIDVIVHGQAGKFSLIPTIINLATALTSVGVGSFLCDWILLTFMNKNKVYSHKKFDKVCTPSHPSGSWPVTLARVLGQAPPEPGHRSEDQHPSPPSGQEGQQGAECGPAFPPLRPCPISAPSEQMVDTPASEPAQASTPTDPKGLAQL
T2 sequence (P56373 1-397): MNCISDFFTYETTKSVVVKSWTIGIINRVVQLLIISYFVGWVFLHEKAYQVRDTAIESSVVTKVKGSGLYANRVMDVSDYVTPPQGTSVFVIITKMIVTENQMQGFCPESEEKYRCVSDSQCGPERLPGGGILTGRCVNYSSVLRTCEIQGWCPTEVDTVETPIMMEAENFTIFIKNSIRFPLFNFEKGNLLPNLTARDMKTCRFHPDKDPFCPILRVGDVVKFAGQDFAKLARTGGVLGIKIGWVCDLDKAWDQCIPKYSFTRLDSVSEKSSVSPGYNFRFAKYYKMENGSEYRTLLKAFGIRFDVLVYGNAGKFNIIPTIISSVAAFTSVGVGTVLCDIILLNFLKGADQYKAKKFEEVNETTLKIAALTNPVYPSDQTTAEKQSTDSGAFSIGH
Experimental: as §1, §2

SMILES | IC50 (rat P2X3 receptor) [nM] | IC50 (human P2X2/3 receptor) [nM]
Cc1cccc(-n2cc(-c3ccc(F)cc3)c3c(NC4CCOCC4)ncnc32)c1 [Compound 11, [5-(4-Fluoro-phenyl)-7-m-tolyl-7H-pyrrolo[2,3-d]pyrimidin-4-yl]-(tetrahydro-pyran-4-yl)-amine] | ~309 | 
Cc1ccc(-n2cc(-c3ccccc3)c3c(N[C@H](C)CO)ncnc32)cc1Cl [Compound 12, (R)-2-[7-(3-Chloro-4-methyl-phenyl)-5-phenyl-7H-pyrrolo[2,3-d]pyrimidin-4-ylamino]-propan-1-ol] |  | ~501
